Type in all cases: biochemical
Assay [1] has as its target T1, Cathepsin B (Homo sapiens, UniProt P07858).
T1 construct: purchased Calbiochem
The assay is described as follows: Study of Cathepsin B inhibition (fluorescence, Z-arg-arg-AMC). The conditions noted are these: for Cathepsin B, percentage in parentheses beside IC50 value (% inhibition): printed beside 20 μM, meaning not explained; for IC50: substrate Z-arg-arg-AMC 20 μM, enzyme 16 ng/ml, 1 hour at ambient temperature. The method, then: (§1) The products to be tested (10 mM) are diluted to […] in DMSO and distributed into Nunc polystyrene 96 well plates at a rate of 2 μl per well. Column 12 of the plate is reserved for the controls and therefore receives […] of DMSO (without products) per well. The plates are stored at −80° C. and thawed on the day of the experiment.
(§2) The products are diluted to 50 μM by adding 38 μl of reaction buffer: sodium acetate 100 mM, EDTA 5 mM, DTT […] pH 5.5. The addition as well as all the operations by pipette are carried out with a CybiWell 96 tip pipette. After mixing the solutions, each product is transferred into 2 wells (duplicates) of a Greiner black 384 well plate at a rate of 10 μl per well. Two 96-well plates can therefore be tested in a 384-well plate.
(§3) A solution of substrate at 50 μM, Z-Val-arg-AMC (Calbiochem), is prepared in the reaction buffer. The substrate, is then distributed into all the wells of the 384-well plate (20 μl per well).
(§4) A solution of Cathepsin K at 12.5 ng/ml is prepared in the reaction buffer and distributed into all the wells of the 384-well plate (20 μl per well) except for the 16 wells serving as 100% inhibition controls (column 23 and 24, lines I to P) which receive 20 μl of enzyme-free buffer.
(§5) The plates are then incubated 2H at ambient temperature, then read on Fluoroskan (Labsystems): excitation 390 nm; emission 460 nm
(§6) The final concentrations of each of the reagents are: products 10 μM, substrate 20 μM, enzyme 5 ng/ml.
(§7) The % inhibition for each of the products is calculated by using points at 0 and 100% inhibition of each plate as references. The products presenting a significant inhibition are then retested on a range of concentrations from 50 to 0.5 μM to determine an IC50.
Study of Cathepsin B Inhibition:
(§8) Protocol identical to that of Cathepsin K except for:
Z-arg-arg-AMC substrate (Calbiochem), solution at 50 μM, final concentration 20 μM
Cathepsin B (Calbiochem), solution at 40 ng/ml, final concentration 16 ng/ml
Incubation for 1 hour at ambient temperature

Assay [2] deals with T2, Papain (Carica papaya, UniProt P00784).
T2 construct: purchased Sigma
T2 sequence (P00784 134-345): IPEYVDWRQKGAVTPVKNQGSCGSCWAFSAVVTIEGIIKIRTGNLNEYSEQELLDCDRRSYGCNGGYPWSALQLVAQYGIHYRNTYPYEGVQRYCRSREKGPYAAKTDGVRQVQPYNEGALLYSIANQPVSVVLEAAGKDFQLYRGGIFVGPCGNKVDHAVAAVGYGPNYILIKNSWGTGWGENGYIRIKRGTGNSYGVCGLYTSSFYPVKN
In words: Study of Papain inhibition (fluorescence). The following applies: for IC50: enzyme 20 ng/ml, 30 minutes at ambient temperature; for Papain, percentage in parentheses beside IC50 value (% inhibition): printed beside 20 μM, meaning not explained. The method, then:
as §1, §2, §3, §4, §5, §6, §7
Study of Papain Inhibition:
as §8
Papain (Sigma), solution at 50 ng/ml, final concentration 20 ng/ml
Incubation for 30 minutes at ambient temperature

The target of assay [3] is T3, Cathepsin K (Homo sapiens, UniProt P43235).
T3 sequence (P43235 115-329): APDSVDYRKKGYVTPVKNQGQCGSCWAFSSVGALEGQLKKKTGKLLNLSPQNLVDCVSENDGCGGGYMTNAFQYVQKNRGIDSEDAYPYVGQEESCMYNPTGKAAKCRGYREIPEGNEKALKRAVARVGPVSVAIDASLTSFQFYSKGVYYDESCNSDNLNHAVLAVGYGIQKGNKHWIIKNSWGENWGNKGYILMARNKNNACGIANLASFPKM
The assay is described as follows: Study of Cathepsin K inhibition (fluorescence, Z-Val-arg-AMC). The following applies: for IC50: substrate Z-Val-arg-AMC 20 μM, enzyme 5 ng/ml, 2H at ambient temperature, read-out: Cathepsin K IC50. In a few lines:
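Recombinant cathepsin K (5 ng/ml final) with 20 μM Z-Val-Arg-AMC in 100 mM sodium acetate, 5 mM EDTA, DTT, pH 5.5; compounds screened at 10 μM in duplicate, 2 h at ambient temperature, fluorescence ex 390/em 460 nm. % inhibition vs plate 0/100% controls; actives retested 50–0.5 μM for IC50.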

SMILES strings stand for the structures.

In the case of `CC(C)(C)Oc1ccc(C[C@H](NC(=O)[C@@H]2CCCN3C(=O)CC[C@H](NC(=O)Nc4ccc(Oc5ccccc5)cc4)C(=O)N23)C(=O)C=[N+]=[N-])cc1` [Example 54, 9-[(9S)-[[(4-phenoxyphenyl)amino]carbonyl]amino]-N-[(2S)-4-diazo-1-[4-[(1,1-dimethyl)ethoxy]phenyl]-3-oxo-2-butyl]-6H-(1S)-pyridazino[1,2-a][1,2]diazepine-1-carboxamide], the “Cathepsin B, percentage in parentheses beside IC50 value (% inhibition)” value in assay [1] is on record as 30%. For the same compound, the IC50 in assay [2] was determined as 15 µM.
Consider `C=CCOC(=O)CC[C@H](NC(=O)[C@@H]1CCCN2C(=O)CCC[C@H](NC(=O)NC3CCCCC3)C(=O)N12)C(=O)COC(=O)c1c(Cl)cccc1Cl` [Example 122, (2-propenyl)(4S)6-[(2,6-dichlorobenzoyl)oxy]-4-[[[(1S,9S)-9-[[(cyclohexylamino)carbonyl]amino]-octahydro-6,10-dioxo-o-6H-pyridazino[1,2-a][1,2]diazepine-1-yl]carbonyl]amino]-5-oxo-hexanoate], for which the IC50 in assay [3] came out at 18 µM; in assay [1], 0.7 µM. The “Papain, percentage in parentheses beside IC50 value (% inhibition)” value in assay [2] is 45%.
On to `C=CCOC(=O)CC[C@H](NC(=O)[C@@H]1CCCN2C(=O)CC[C@H](NC(=O)Nc3ccc(Oc4ccccc4)cc3)C(=O)N12)C(=O)COC(=O)c1c(Cl)cccc1Cl` [Example 132, (2-propenyl)(4S)6-[(2,6-dichlorobenzoyl)oxy]-4-[[[(1S,9S)-9-[[[(4-phenoxyphenyl)amino]carbonyl]amino]-octahydro-6,10-dioxo-6H-pyridazino[1,2-a][1,2]diazepine-1-yl]carbonyl]amino]-5-oxo-hexanoate], for which the IC50 is 20 µM in assay [3], 2 µM in assay [1] and 6 µM in assay [2].
Take `[N-]=[N+]=CC(=O)[C@H](Cc1ccccc1)NC(=O)[C@@H]1CCCN2C(=O)CC[C@H](NC(=O)Nc3ccc(Oc4ccccc4)cc3)C(=O)N12` [Example 161, 9-[(9S)[[(4-phenoxyphenyl)amino]carbonyl]amino]-N-((2S)-4-diazo-1-phenyl-3-oxo-2-butyl)-octahydro-6,10-dioxo-6H-(1S)-pyridazino[1,2-a][1,2]diazepine-1-carboxamide]: the IC50 in assay [1] was 9 µM; in assay [2], 19 µM.
Take `C[C@H](NC(=O)[C@@H]1CCCN2C(=O)CC[C@H](NC(=O)NCCc3cccs3)C(=O)N12)C(=O)C=[N+]=[N-]` [Example 172, 9-[(9S)-[[[3-(thien-2-yl)-ethyl]amino]carbonyl]amino]-N-((2S)-4-diazo-3-oxo-2-butyl)-octahydro-6,10-dioxo-6H-(1S)-pyridazino[1,2-a][1,2]diazepine-1-carboxamide]: the IC50 in assay [3] is 20 µM. For the same compound, the “Cathepsin B, percentage in parentheses beside IC50 value (% inhibition)” value in assay [1] is given as 20 (20%). Moreover, the “Papain, percentage in parentheses beside IC50 value (% inhibition)” value in assay [2] is 10%.
For `COC(=O)CCCC(=O)OCC(=O)[C@H](Cc1ccccc1)NC(=O)[C@@H]1CCCN2C(=O)CC[C@H](NC(=O)Nc3ccc(Oc4ccccc4)cc3)C(=O)N12` [Example 217], the “Cathepsin K, percentage in parentheses beside IC50 value (% inhibition)” value in assay [3] (printed beside 20 μM, meaning not explained) stood at 30%. Further, the results for the IC50 in assay [3] and in assay [2] were 20 µM and 7 µM, respectively.
For the compound `O=C(NCCc1cccs1)N[C@H]1CCC(=O)N2CCC[C@@H](C(=O)N[C@@H](Cc3ccccc3)C(=O)CSc3nnnn3-c3ccccc3)N2C1=O` [Example 220, 9-[(9S)-[[[2-(thien-2-yl)-ethyl]amino]carbonyl]amino]-N-[(2S)-1-phenyl-4-[(1-phenyl-1H-tetrazol-5-yl)thio]-3-oxo-2-butyl]-octahydro-6,10-dioxo-6H-(1S)-pyridazino [1,2-a][1,2]diazepine-1-carboxamide], the values for the IC50 in assay [3] and in assay [2] were 20 µM and 6 µM, respectively.
For `O=C(NCCc1cccs1)N[C@H]1CCC(=O)N2CCC[C@@H](C(=O)N[C@@H](Cc3ccccc3)C(=O)CSc3nc4ccccc4s3)N2C1=O` [Example 221, 9-[(9S)-[[[2-(thien-2-yl)-ethyl]amino]carbonyl]amino]-N-[(2S)-1-phenyl-4-[(2-benzothiazolyl)thio]-3-oxo-2-butyl]-octahydro-6,10-dioxo-6H-(1S)-pyridazino[1,2-a][1,2]diazepine-1-carboxamide], the IC50 worked out at 20 µM in assay [3] and 7 µM in assay [2].
As to `O=C(NCCc1cccs1)N[C@H]1CCC(=O)N2CCC[C@@H](C(=O)N[C@@H](Cc3ccccc3)C(=O)COC(=O)c3c(Cl)cccc3Cl)N2C1=O` [Example 224, 9-[(9S)-[[[2-(thien-2-yl)-ethyl]amino]carbonyl]amino]-N-[(2S)-1-phenyl-4-[(-2,6-dichlorobenzoyl)oxy]-3-oxo-2-butyl]-octahydro-6,10-dioxo-6H-(1S)-pyridazino[1,2-a][1,2]diazepine-1-carboxamide], the IC50 was 20 µM in assay [3], 9 µM in assay [1] and 8 µM in assay [2].
As for `CC(C)[C@H](NC(=O)[C@@H]1CCCN2C(=O)CC[C@H](NC(=O)c3ccco3)C(=O)N12)C(=O)CSc1nc2ccccc2s1` [Example 374, 9-[(9S)-[(2-furanyl)carbonyl]amino]-N-[(3S)-1-[(benzothiazol-2-yl)thio]-4-methyl-2-oxo-3-pentyl]-octahydro-6,10-dioxo-6H-(1S)-pyridazino[1,2-a][1,2]diazepine-1-carboxamide], the IC50 in assay [3] worked out at 20 µM; in assay [2], 7 µM.
On the same counts, the results for `CC(C)[C@H](NC(=O)[C@@H]1CCCN2C(=O)CC[C@H](NC(=O)NC3CCCCC3)C(=O)N12)C(=O)CSc1nc2ccccc2s1` [Example 382, 9-[(9S)-[(cyclohexylamino)carbonyl]amino]-N-[(3S)-1-[(benzothiazol-2-yl)thio]-4-methyl-2-oxo-3-pentyl]-octahydro-6,10-dioxo-6H-(1S)-pyridazino[1,2-a][1,2]diazepine-1-carboxamide] are 20 µM and 9 µM.
As to `CC(C)[C@H](NC(=O)[C@@H]1CCCN2C(=O)CC[C@H](NC(=O)Nc3ccc(Oc4ccccc4)cc3)C(=O)N12)C(=O)CSc1nnnn1-c1ccccc1` [Example 389, 9-[(9S)-[[(4-phenoxyphenyl)amino]carbonyl]amino]-N-[(3S)-1-[(1-phenyl-1H-tetrazol-5-yl)thio]-4-methyl-2-oxo-3-pentyl]-octahydro-6,10-dioxo-6H-(1S)-pyridazino [1,2-a][1,2]diazepine-1-carboxamide], the IC50 in assay [3] turned out to be 20 µM; in assay [2], 6 µM.
In the case of `CC(C)[C@H](NC(=O)[C@@H]1CCCN2C(=O)CC[C@H](NC(=O)NCCc3cccs3)C(=O)N12)C(=O)CSc1nnnn1-c1ccccc1` [Example 397, 9-[(9S)-[[[2-(thien-2-yl)-ethyl]amino]carbonyl]amino]-N-[(3S)-1-[(1-phenyl-1H-tetrazol-5-yl)thio]-4-methyl-2-oxo-3-pentyl]-octahydro-6,10-dioxo-6H-(1S)-pyridazino [1,2-a][1,2]diazepine-1-carboxamide], the IC50 in assay [3] is 20 µM; in assay [2], 18 µM.
As to `C[C@H](NC(=O)[C@@H]1CCCN2C(=O)CC[C@H](NC(=O)Nc3ccc(Oc4ccccc4)cc3)C(=O)N12)C(=O)CSc1nc2ccccc2s1` [Example 450, 9-[(9S)-[[(4-phenoxyphenyl)amino]carbonyl]amino]-N-[(2S)-4-[(benzothiazol-2-yl)thio]-3-oxo-2-butyl]-octahydro-6,10-dioxo-6H-(1S)-pyridazino[1,2-a][1,2]diazepine-1-carboxamide], the figures for the IC50 in assay [3] and in assay [2] were 20 µM and 18 µM, respectively.

A word on the IC50: it is the point on the concentration scale where inhibition reaches its midpoint.

The record behind these values is patent US20030100550A1, “Carboxamide diazepin derivatives, preparation method, use as medicines, pharmaceutical compositions and use thereof” (priority 2002, published 2003).
